Reference: the supplement of paper PMC10307832

How the values were obtained:
Test in all cases: relative viability (nuclei count vs DMSO), 5 days (fraction); higher = more cells survive
[1] = compound: CN(C)C[C@@H]1CCn2cc(c3ccccc32)C2=C(C(=O)NC2=O)c2cn(c3ccccc23)CCO1 [Ruboxistaurin] + Nc1nc2[nH]cc(CCc3ccc(C(=O)N[C@@H](CCC(=O)O)C(=O)O)cc3)c2c(=O)[nH]1 [Pemetrexed] (partner 0.2 µM)
Method in brief: (§1)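 For relative viability, nuclei counts in treated wells were divided by those in vehicle wells. Lung cancer cell lines had been pin-tool dosed in 1536-well plates the day after seeding and cultured for 5 days, then fixed and stained in one step (final 0.05% Triton X-100, 1% formaldehyde, 1 ug/ml Hoechst) and imaged at 4×. Doses were one drug alone or a fixed anchor-drug dose plus five library-drug doses (not always all listed) in √10 steps, and values are duplicate-plate medians.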

[2] = compound: CN(C)C[C@@H]1CCn2cc(c3ccccc32)C2=C(C(=O)NC2=O)c2cn(c3ccccc23)CCO1 [Ruboxistaurin] + Nc1ncn([C@H]2C[C@H](O)[C@@H](CO)O2)c(=O)n1 [Decitabine] (partner 2 µM)
Method in brief: as §1

Ruboxistaurin + Olaparib = compound: CN(C)C[C@@H]1CCn2cc(c3ccccc32)C2=C(C(=O)NC2=O)c2cn(c3ccccc23)CCO1 [Ruboxistaurin] + O=C(c1cc(Cc2n[nH]c(=O)c3ccccc23)ccc1F)N1CCN(C(=O)C2CC2)CC1 [Olaparib] (partner 8 µM)
Method in brief: as §1

[3] = compound: CN(C)C[C@@H]1CCn2cc(c3ccccc32)C2=C(C(=O)NC2=O)c2cn(c3ccccc23)CCO1 [Ruboxistaurin] + O=C(CCCCCCC(=O)Nc1ccccc1)NO [Vorinostat] (partner 1 µM)
Method in brief: as §1

[4] = compound: CN(C)C[C@@H]1CCn2cc(c3ccccc32)C2=C(C(=O)NC2=O)c2cn(c3ccccc23)CCO1 [Ruboxistaurin] + Cc1nc(NC(=O)N2CCC[C@H]2C(N)=O)sc1-c1ccnc(C(C)(C)C(F)(F)F)c1 [Alpelisib] (partner 2 µM)
Method in brief: as §1

NCI-H23
relative viability ([1]; first compound 0.08 µM): 0.73 | relative viability ([1]; first compound 0.8 µM): 0.541 | relative viability ([1]; first compound 2.53 µM): 0.666 | relative viability ([1]; first compound 8 µM): 0.45 | relative viability ([2]; first compound 0.08 µM): 0.279 | relative viability ([2]; first compound 0.8 µM): 0.259 | relative viability ([2]; first compound 2.53 µM): 0.364 | relative viability ([2]; first compound 8 µM): 0.283 | relative viability (Ruboxistaurin + Olaparib; first compound 0.08 µM): 0.41 | relative viability (Ruboxistaurin + Olaparib; first compound 0.8 µM): 0.251 | relative viability (Ruboxistaurin + Olaparib; first compound 2.53 µM): 0.361 | relative viability (Ruboxistaurin + Olaparib; first compound 8 µM): 0.254 | relative viability ([3]; first compound 0.08 µM): 0.425 | relative viability ([3]; first compound 0.8 µM): 0.564 | relative viability ([3]; first compound 2.53 µM): 0.548 | relative viability ([3]; first compound 8 µM): 0.453 | relative viability ([4]; first compound 0.08 µM): 0.831 | relative viability ([4]; first compound 0.8 µM): 0.617 | relative viability ([4]; first compound 2.53 µM): 0.71 | relative viability ([4]; first compound 8 µM): 0.686

HCC-827
relative viability ([1]; first compound 0.08 µM): 0.265 | relative viability ([1]; first compound 0.8 µM): 0.252 | relative viability ([1]; first compound 2.53 µM): 0.268 | relative viability ([1]; first compound 8 µM): 0.28 | relative viability ([2]; first compound 0.08 µM): 0.349 | relative viability ([2]; first compound 0.8 µM): 0.344 | relative viability ([2]; first compound 2.53 µM): 0.376 | relative viability ([2]; first compound 8 µM): 0.319 | relative viability (Ruboxistaurin + Olaparib; first compound 0.08 µM): 0.655 | relative viability (Ruboxistaurin + Olaparib; first compound 0.8 µM): 0.647 | relative viability (Ruboxistaurin + Olaparib; first compound 2.53 µM): 0.695 | relative viability (Ruboxistaurin + Olaparib; first compound 8 µM): 0.624 | relative viability ([3]; first compound 0.08 µM): 0.824 | relative viability ([3]; first compound 0.8 µM): 0.828 | relative viability ([3]; first compound 2.53 µM): 0.839 | relative viability ([3]; first compound 8 µM): 0.837 | relative viability ([4]; first compound 0.08 µM): 1.13 | relative viability ([4]; first compound 0.8 µM): 1.02 | relative viability ([4]; first compound 2.53 µM): 0.984 | relative viability ([4]; first compound 8 µM): 0.969

HCC-78
relative viability ([1]; first compound 0.08 µM): 0.85 | relative viability ([1]; first compound 0.8 µM): 0.91 | relative viability ([1]; first compound 2.53 µM): 0.828 | relative viability ([1]; first compound 8 µM): 0.945 | relative viability ([2]; first compound 0.08 µM): 0.636 | relative viability ([2]; first compound 0.8 µM): 0.663 | relative viability ([2]; first compound 2.53 µM): 0.756 | relative viability ([2]; first compound 8 µM): 0.635 | relative viability (Ruboxistaurin + Olaparib; first compound 0.08 µM): 0.821 | relative viability (Ruboxistaurin + Olaparib; first compound 0.8 µM): 0.762 | relative viability (Ruboxistaurin + Olaparib; first compound 2.53 µM): 0.935 | relative viability (Ruboxistaurin + Olaparib; first compound 8 µM): 0.746 | relative viability ([3]; first compound 0.08 µM): 0.419 | relative viability ([3]; first compound 0.8 µM): 0.368 | relative viability ([3]; first compound 2.53 µM): 0.425 | relative viability ([3]; first compound 8 µM): 0.475 | relative viability ([4]; first compound 0.08 µM): 0.358 | relative viability ([4]; first compound 0.8 µM): 0.311 | relative viability ([4]; first compound 2.53 µM): 0.327 | relative viability ([4]; first compound 8 µM): 0.286

UMC-11
relative viability ([1]; first compound 0.08 µM): 0.823 | relative viability ([1]; first compound 0.8 µM): 0.721 | relative viability ([1]; first compound 2.53 µM): 0.688 | relative viability ([1]; first compound 8 µM): 0.606 | relative viability ([2]; first compound 0.08 µM): 0.672 | relative viability ([2]; first compound 0.8 µM): 0.51 | relative viability ([2]; first compound 2.53 µM): 0.676 | relative viability ([2]; first compound 8 µM): 0.61 | relative viability (Ruboxistaurin + Olaparib; first compound 0.08 µM): 0.554 | relative viability (Ruboxistaurin + Olaparib; first compound 0.8 µM): 0.364 | relative viability (Ruboxistaurin + Olaparib; first compound 2.53 µM): 0.361 | relative viability (Ruboxistaurin + Olaparib; first compound 8 µM): 0.289 | relative viability ([3]; first compound 0.08 µM): 0.41 | relative viability ([3]; first compound 0.8 µM): 0.377 | relative viability ([3]; first compound 2.53 µM): 0.388 | relative viability ([3]; first compound 8 µM): 0.289 | relative viability ([4]; first compound 0.08 µM): 0.966 | relative viability ([4]; first compound 0.8 µM): 0.896 | relative viability ([4]; first compound 2.53 µM): 0.95 | relative viability ([4]; first compound 8 µM): 0.743

NCI-H1975
relative viability ([1]; first compound 0.08 µM): 0.328 | relative viability ([1]; first compound 0.8 µM): 0.276 | relative viability ([1]; first compound 2.53 µM): 0.301 | relative viability ([1]; first compound 8 µM): 0.286 | relative viability ([2]; first compound 0.08 µM): 0.43 | relative viability ([2]; first compound 0.8 µM): 0.346 | relative viability ([2]; first compound 2.53 µM): 0.393 | relative viability ([2]; first compound 8 µM): 0.42 | relative viability (Ruboxistaurin + Olaparib; first compound 0.08 µM): 0.882 | relative viability (Ruboxistaurin + Olaparib; first compound 0.8 µM): 0.784 | relative viability (Ruboxistaurin + Olaparib; first compound 2.53 µM): 0.788 | relative viability (Ruboxistaurin + Olaparib; first compound 8 µM): 0.713 | relative viability ([3]; first compound 0.08 µM): 0.802 | relative viability ([3]; first compound 0.8 µM): 0.696 | relative viability ([3]; first compound 2.53 µM): 0.698 | relative viability ([3]; first compound 8 µM): 0.682 | relative viability ([4]; first compound 0.08 µM): 0.678 | relative viability ([4]; first compound 0.8 µM): 0.565 | relative viability ([4]; first compound 2.53 µM): 0.561 | relative viability ([4]; first compound 8 µM): 0.447

COR-L23
relative viability ([1]; first compound 0.08 µM): 0.193 | relative viability ([1]; first compound 0.8 µM): 0.182 | relative viability ([1]; first compound 2.53 µM): 0.204 | relative viability ([1]; first compound 8 µM): 0.192 | relative viability ([2]; first compound 0.08 µM): 0.427 | relative viability ([2]; first compound 0.8 µM): 0.384 | relative viability ([2]; first compound 2.53 µM): 0.467 | relative viability ([2]; first compound 8 µM): 0.487 | relative viability (Ruboxistaurin + Olaparib; first compound 0.08 µM): 0.409 | relative viability (Ruboxistaurin + Olaparib; first compound 0.8 µM): 0.377 | relative viability (Ruboxistaurin + Olaparib; first compound 2.53 µM): 0.387 | relative viability (Ruboxistaurin + Olaparib; first compound 8 µM): 0.326 | relative viability ([3]; first compound 0.08 µM): 0.61 | relative viability ([3]; first compound 0.8 µM): 0.442 | relative viability ([3]; first compound 2.53 µM): 0.522 | relative viability ([3]; first compound 8 µM): 0.501 | relative viability ([4]; first compound 0.08 µM): 0.804 | relative viability ([4]; first compound 0.8 µM): 0.814 | relative viability ([4]; first compound 2.53 µM): 0.73 | relative viability ([4]; first compound 8 µM): 0.695

SW 1573
relative viability ([1]; first compound 0.08 µM): 0.923 | relative viability ([1]; first compound 0.8 µM): 0.803 | relative viability ([1]; first compound 2.53 µM): 0.795 | relative viability ([1]; first compound 8 µM): 0.704 | relative viability ([2]; first compound 0.08 µM): 0.454 | relative viability ([2]; first compound 0.8 µM): 0.445 | relative viability ([2]; first compound 2.53 µM): 0.58 | relative viability ([2]; first compound 8 µM): 0.487 | relative viability (Ruboxistaurin + Olaparib; first compound 0.08 µM): 0.494 | relative viability (Ruboxistaurin + Olaparib; first compound 0.8 µM): 0.369 | relative viability (Ruboxistaurin + Olaparib; first compound 2.53 µM): 0.595 | relative viability (Ruboxistaurin + Olaparib; first compound 8 µM): 0.482 | relative viability ([3]; first compound 0.08 µM): 0.756 | relative viability ([3]; first compound 0.8 µM): 0.413 | relative viability ([3]; first compound 2.53 µM): 0.809 | relative viability ([3]; first compound 8 µM): 0.698 | relative viability ([4]; first compound 0.08 µM): 0.752 | relative viability ([4]; first compound 0.8 µM): 0.688 | relative viability ([4]; first compound 2.53 µM): 0.72 | relative viability ([4]; first compound 8 µM): 0.706

NCI-H2126
relative viability ([1]; first compound 0.08 µM): 0.699 | relative viability ([1]; first compound 0.8 µM): 0.65 | relative viability ([1]; first compound 2.53 µM): 0.674 | relative viability ([1]; first compound 8 µM): 0.623 | relative viability ([2]; first compound 0.08 µM): 0.586 | relative viability ([2]; first compound 0.8 µM): 0.581 | relative viability ([2]; first compound 2.53 µM): 0.562 | relative viability ([2]; first compound 8 µM): 0.552 | relative viability (Ruboxistaurin + Olaparib; first compound 0.08 µM): 0.888 | relative viability (Ruboxistaurin + Olaparib; first compound 0.8 µM): 0.887 | relative viability (Ruboxistaurin + Olaparib; first compound 2.53 µM): 0.915 | relative viability (Ruboxistaurin + Olaparib; first compound 8 µM): 0.936 | relative viability ([3]; first compound 0.08 µM): 0.844 | relative viability ([3]; first compound 0.8 µM): 0.636 | relative viability ([3]; first compound 2.53 µM): 0.871 | relative viability ([3]; first compound 8 µM): 0.621 | relative viability ([4]; first compound 0.08 µM): 0.729 | relative viability ([4]; first compound 0.8 µM): 0.713 | relative viability ([4]; first compound 2.53 µM): 0.76 | relative viability ([4]; first compound 8 µM): 0.697
